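Interpolation was linear, between the two tested concentrations surrounding the appropriate level; five concentrations were tested over 48 hours in 96-well plates. Abbreviation: GI50, concentration required for 50% inhibition of growth.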 Active and inactive are the calls of the source. Cut-off read from the data, not from the text of the source: active = GI50 up to about 1.1 µM and inactive = higher.
Key:
Experiment in all cases: NCI-60 cell line screen, 48 h
COLO 205 = tested on: COLO 205
HCC 2998 = tested on: HCC 2998
HOP-92 = tested on: HOP-92
OVCAR-3 = tested on: OVCAR-3
UACC-257 = tested on: UACC-257
A549 = tested on: A549
RPMI-8226 = tested on: RPMI-8226
OVCAR-5 = tested on: OVCAR-5
IGROV-1 = tested on: IGROV-1
CCRF-CEM = tested on: CCRF-CEM
K562 = tested on: K562
SN12C = tested on: SN12C
HCT-116 = tested on: HCT-116
SF-539 = tested on: SF-539
OVCAR-8 = tested on: OVCAR-8
SNB-19 = tested on: SNB-19
HL-60 = tested on: HL-60

Structure (SMILES) | GI50 (COLO 205) | GI50 (HCC 2998) | GI50 (HOP-92) | GI50 (OVCAR-3) | GI50 (UACC-257) | GI50 (A549) | GI50 (RPMI-8226) | GI50 (OVCAR-5) | GI50 (IGROV-1) | GI50 (CCRF-CEM) | GI50 (K562) | GI50 (SN12C) | GI50 (HCT-116) | GI50 (SF-539) | GI50 (OVCAR-8) | GI50 (SNB-19) | GI50 (HL-60)
Cc1cc(N(CCC#N)CCC#N)ccc1/C=C(\NC(=O)/C=C/c1ccccc1)C(=O)Nc1ccccc1Cl | > 100 µM (inactive) | > 100 µM (inactive) | 29.2 µM (inactive) | > 100 µM (inactive) | > 100 µM (inactive) | > 100 µM (inactive) | > 100 µM (inactive) | > 100 µM (inactive) | > 100 µM (inactive) | > 100 µM (inactive) | > 100 µM (inactive) | > 100 µM (inactive) | > 100 µM (inactive) | > 100 µM (inactive) | > 100 µM (inactive) | > 100 µM (inactive) | > 100 µM (inactive)
CCn1c(=O)c(C(=O)O)c(Cl)c2cc3c(cc21)OCO3 | > 100 µM (inactive) | > 100 µM (inactive) | > 100 µM (inactive) | > 100 µM (inactive) | > 100 µM (inactive) | > 100 µM (inactive) | > 100 µM (inactive) | > 100 µM (inactive) | > 100 µM (inactive) | > 100 µM (inactive) | > 100 µM (inactive) | > 100 µM (inactive) | > 100 µM (inactive) | > 100 µM (inactive) | > 100 µM (inactive) | > 100 µM (inactive) | > 100 µM (inactive)
N#CC1C(=O)C(=O)N(c2ccccc2)C1=O (configuration not stated) | > 100 µM (inactive) | > 100 µM (inactive) | > 100 µM (inactive) | > 100 µM (inactive) | > 100 µM (inactive) |  | > 100 µM (inactive) | > 100 µM (inactive) | > 100 µM (inactive) |  | > 100 µM (inactive) | > 100 µM (inactive) | > 100 µM (inactive) | > 100 µM (inactive) | > 100 µM (inactive) | > 100 µM (inactive) | 
CC12CC3CC(C1)CC(N=[N+]=[N-])(C3)C2 | > 100 µM (inactive) | > 100 µM (inactive) | > 100 µM (inactive) | > 100 µM (inactive) | > 100 µM (inactive) | > 100 µM (inactive) | > 100 µM (inactive) | > 100 µM (inactive) | > 100 µM (inactive) | > 100 µM (inactive) | > 100 µM (inactive) | > 100 µM (inactive) | > 100 µM (inactive) | > 100 µM (inactive) | > 100 µM (inactive) | > 100 µM (inactive) | 
C/C=C(\C)C(=O)OC1C2C(C)=CC(=O)C(O)C2(C)C2C3(O)OCC24C1OC(=O)C(OC(C)=O)C4C(C)C3O (configuration not stated) | 0.0719 µM (active) | 0.0415 µM (active) | 0.0388 µM (active) | 0.0375 µM (active) | 0.0375 µM (active) | 0.0873 µM (active) | 0.0375 µM (active) | 0.111 µM (active) | 0.0375 µM (active) | 0.0375 µM (active) | 0.0375 µM (active) | 0.0741 µM (active) | 0.0375 µM (active) |  | 0.0396 µM (active) |  | 0.0375 µM (active)
CCOC(=O)CSC(=O)NCCCl | > 100 µM (inactive) | > 100 µM (inactive) | > 100 µM (inactive) | > 100 µM (inactive) | > 100 µM (inactive) | > 100 µM (inactive) |  | > 100 µM (inactive) | > 100 µM (inactive) |  |  | > 100 µM (inactive) | > 100 µM (inactive) | > 100 µM (inactive) | > 100 µM (inactive) | > 100 µM (inactive) | 
COc1ccc(N(CC(=O)O)S(=O)(=O)c2ccccc2)cc1 | > 100 µM (inactive) |  | > 100 µM (inactive) | > 100 µM (inactive) | > 100 µM (inactive) | > 100 µM (inactive) | > 100 µM (inactive) | > 100 µM (inactive) | > 100 µM (inactive) | > 100 µM (inactive) | > 100 µM (inactive) | > 100 µM (inactive) |  | > 100 µM (inactive) | > 100 µM (inactive) | > 100 µM (inactive) | > 100 µM (inactive)
